Results on 13 compounds are retold here after patent US20220324865A1 (Bayer Aktiengesellschaft, priority 2018, published 2022).

As a reminder, the IC50 is the concentration that inhibits the measured activity by half.

Each structure is given as a SMILES string.

For this experiment, the target named is T1, human EP3 receptor (Homo sapiens, UniProt P43115).
T1 construct: expressed in transfected cells; host or cells: CHO K1 (Chinese Hamster Ovary), stably co-transfected with Galpha16 and mitochondrial clytin
T1 sequence (P43115 1-390): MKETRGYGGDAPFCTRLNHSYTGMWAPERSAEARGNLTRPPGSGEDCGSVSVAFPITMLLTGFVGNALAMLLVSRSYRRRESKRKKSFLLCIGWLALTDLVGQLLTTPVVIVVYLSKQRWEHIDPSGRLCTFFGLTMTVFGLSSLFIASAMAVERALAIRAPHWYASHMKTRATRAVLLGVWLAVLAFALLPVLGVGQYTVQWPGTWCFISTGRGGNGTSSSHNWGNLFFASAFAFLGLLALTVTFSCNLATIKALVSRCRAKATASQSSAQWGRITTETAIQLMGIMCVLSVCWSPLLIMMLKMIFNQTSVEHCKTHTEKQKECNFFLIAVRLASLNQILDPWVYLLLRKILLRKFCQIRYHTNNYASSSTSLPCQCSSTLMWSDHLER
Kind of experiment: Cellular in vitro assay for determining EP3 receptor activity (human EP3 cell line, sulprostone-stimulated calcium luminescence). The class given is cell-based. To be noted: CHO cells expressing human EP3 and mitochondrial Clytin; antagonist mode, sulprostone at EC50; read-out: EP3 CHO mtCLY ANTAG IC50. Put shortly: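 CHO K1 cells stably expressing human EP3 with Gα16 and mitochondrial Clytin, loaded overnight with coelenterazine. Compounds added 10 min before sulprostone at its EC50; antagonism read immediately as reduced calcium-driven luminescence, quadruplicate points.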
As for `CC(NC(=O)c1cc2c(=O)[nH]c(-c3ccc4ccccc4c3)cn2n1)c1ccc(C(C)(C)C)cc1` (stereo not shown) [Example 2-40, N-[1-(4-tert.-Butylphenyl)ethyl]-6-(2-naphthyl)-4-oxo-4,5-dihydropyrazolo[1,5-a]pyrazine-2-carboxamide], the IC50 was determined as 3.15 nM.

Regarding `C[C@@H](NC(=O)c1cc2c(=O)[nH]c(-c3ccc4ccccc4c3)cn2n1)c1ccc2ccccc2c1` [Example 2-41, 6-(2-Naphthyl)-N-[(7R)-1-(2-naphthyl)ethyl]-4-oxo-4,5-dihydropyrazolo[1,5-a]pyrazine-2-carboxamide], the IC50 came to 2.15 nM.

Consider `O=C(N[C@H]1CCc2ccccc21)c1cc2c(=O)[nH]c(-c3ccc4ccccc4c3)cn2n1` [Example 2-42, N-[(7S)-2,3-Dihydro-1H-inden-1-yl]-6-(2-naphthyl)-4-oxo-4,5-dihydropyrazolo[1,5-a]pyrazine-2-carboxamide], for which the IC50 was 7.27 nM. For the compound `O=C(N[C@@H]1CCCc2ccccc21)c1cc2c(=O)[nH]c(-c3ccc4ccccc4c3)cn2n1` [Example 2-43, 6-(2-Naphthyl)-4-oxo-N-[(7R)-1,2,3,4-tetrahydronaphthalin-1-yl]-4,5-dihydropyrazolo[1,5-a]pyrazine-2-carboxamide], the IC50 worked out at 3.7 nM. The same measure for `Cc1ccc(C(C)NC(=O)c2cc3c(=O)[nH]c(-c4ccc5ccccc5c4)cn3n2)cc1` (stereo not shown) [Example 2-44, N-[1-(4-Methylphenyl)ethyl]-6-(2-naphthyl)-4-oxo-4,5-dihydropyrazolo[1,5-a]pyrazine-2-carboxamide]: 1.3 nM; for `O=C(Nc1cccc2ncccc12)c1cc2c(=O)[nH]c(-c3ccc4ccccc4c3)cn2n1` [Example 2-45, N-(Chinolin-5-yl)-6-(2-naphthyl)-4-oxo-4,5-dihydropyrazolo[1,5-a]pyrazine-2-carboxamide]: 6.05 nM.

As to `Cc1nn(C(C)CNC(=O)c2cc3c(=O)[nH]c(-c4ccc5ccccc5c4)cn3n2)c(C)c1Cl` (stereo not shown) [Example 2-46, N-[2-(4-Chlor-3,5-dimethyl-1H-pyrazol-1-yl)propyl]-6-(2-naphthyl)-4-oxo-4,5-dihydropyrazolo[1,5-a]pyrazine-2-carboxamide], the half-maximal inhibitory concentration (IC50) turned out to be 2.95 nM. The value for `CC(NC(=O)c1cc2c(=O)[nH]c(-c3ccc4ccccc4c3)cn2n1)c1ccc(Cl)cc1Cl` (stereo not shown) [Example 2-47, N-[1-(2,4-Dichlorphenyl)ethyl]-6-(2-naphthyl)-4-oxo-4,5-dihydropyrazolo[1,5-a]pyrazine-2-carboxamide] was 3.27 nM.

`CC(C)C(NC(=O)c1cc2c(=O)[nH]c(-c3ccc4ccccc4c3)cn2n1)c1ccc(F)cc1` (stereo not shown) [Example 2-48, N-[1-(4-Fluorophenyl)-2-methylpropyl]-6-(2-naphthyl)-4-oxo-4,5-dihydropyrazolo[1,5-a]pyrazine-2-carboxamide]: the half-maximal inhibitory concentration (IC50) is 3.6 nM.

Regarding `CC(NC(=O)c1cc2c(=O)[nH]c(-c3ccc4ccccc4c3)cn2n1)c1ccn(C)n1` (stereo not shown) [Example 2-49, N-[1-(1-Methyl-1H-pyrazol-3-yl)ethyl]-6-(2-naphthyl)-4-oxo-4,5-dihydropyrazolo[1,5-a]pyrazine-2-carboxamide], the IC50 was determined as 8.6 nM. The same measure for `CC(NC(=O)c1cc2c(=O)[nH]c(-c3ccc4ccccc4c3)cn2n1)c1ccccc1OC(F)F` (stereo not shown) [Example 2-50, N-{1-[2-(Difluormethoxy)phenyl]ethyl}-6-(2-naphthyl)-4-oxo-4,5-dihydropyrazolo[1,5-a]pyrazine-2-carboxamide]: 1.15 nM; for `CC(NC(=O)c1cc2c(=O)[nH]c(-c3ccc4ccccc4c3)cn2n1)c1ccc(Cl)c(Cl)c1` (stereo not shown) [Example 2-51, N-[1-(3,4-Dichlorphenyl)ethyl]-6-(2-naphthyl)-4-oxo-4,5-dihydropyrazolo[1,5-a]pyrazine-2-carboxamide]: 2.05 nM; for `O=C(NCCc1cccc(F)c1)c1cc2c(=O)[nH]c(-c3ccc4ccccc4c3)cn2n1` [Example 2-52, N-[2-(3-Fluorophenyl)ethyl]-6-(2-naphthyl)-4-oxo-4,5-dihydropyrazolo[1,5-a]pyrazine-2-carboxamide]: 4.4 nM.
